Measurements reported in patent US11008335B2, “Positive allosteric modulators of the muscarinic acetylcholine receptor M4” (Vanderbilt University, priority 2016, dated 2021).
Counter-ions that a name gives are not always drawn.

Target: T1, Human M4 (Homo sapiens, UniProt P08173)
T1 sequence (P08173 1-479): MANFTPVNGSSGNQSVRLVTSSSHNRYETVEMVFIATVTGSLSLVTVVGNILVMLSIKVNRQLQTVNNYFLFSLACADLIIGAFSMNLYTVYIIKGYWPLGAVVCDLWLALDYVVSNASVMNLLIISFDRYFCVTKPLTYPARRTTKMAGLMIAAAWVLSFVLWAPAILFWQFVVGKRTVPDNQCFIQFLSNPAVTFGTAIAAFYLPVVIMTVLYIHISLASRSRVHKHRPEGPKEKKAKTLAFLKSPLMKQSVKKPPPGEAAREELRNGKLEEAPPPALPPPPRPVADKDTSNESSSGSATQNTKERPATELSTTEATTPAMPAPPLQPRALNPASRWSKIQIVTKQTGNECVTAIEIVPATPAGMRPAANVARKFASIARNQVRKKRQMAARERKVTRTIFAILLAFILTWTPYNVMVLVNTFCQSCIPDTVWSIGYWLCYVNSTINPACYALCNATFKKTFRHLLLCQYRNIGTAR
Experiment: mAChR M4 cell-based functional assay (calcium flux, potentiation of EC20 acetylcholine response)
Design: Emax: dose or concentration left out as unconfirmed
Conditions: for Emax: CHO-K1

Emax [%]	EC50 [nM]	SMILES
86.7	–	COc1ccc(CNc2nncc3c2sc2nnc(C)c(C)c23)cc1F [Compound 17, N-(3-fluoro-4-methoxybenzyl)-3,4-dimethylthieno[2,3-c:4,5-d′]dipyridazin-8-amine]
70.3	214	Cc1nnc2sc3c(N4CC[C@H](Oc5cccnc5)C4)nncc3c2c1C [Compound 20, (S)-3,4-dimethyl-8-(3-(pyridin-3-yloxy)pyrrolidin-1-yl)thieno[2,3-c:4,5-d′]pyridazine]
69.4	1310	COc1ccc(CNc2nncc3c2sc2nc(C)c(Cl)c(C)c23)cc1F [Compound 5, 3-chloro-N-(3-fluoro-4-methoxybenzyl)-2,4-dimethylpyrido[3′,2′:4,5]thieno[2,3-d]pyridazin-8-amine]
77.4	779	Cc1nnc2sc3c(NCc4ccc(C(C)(C)CO)cc4F)nncc3c2c1C [Compound 16, 2-(4-(((3,4-dimethylthieno[2,3-c:4,5-d′]dipyridazin-8-yl)amino)methyl)-3-fluorophenyl)-2-methylpropan-1-ol]
51.3	2110	Cc1nnc2sc3c(N4CC(Oc5cccnc5)C4)nncc3c2c1C [Compound 19, 3,4-dimethyl-8-(3-(pyridin-3-yloxy)azetidin-1-yl)thieno[2,3-c:4,5-d′]dipyridazine]
50.4	1630	Cc1nc2sc3c(N4CCCC4)nnc(C)c3c2c(C)c1Cl [Compound 21, 3-Chloro-2,4,5-trimethyl-8-(pyrrolidin-1-yl)pyrido[3′,2′:4,5]thieno[2,3-d]pyridazine]

The next lines start with the compound.

SMILES	Emax [%]	EC50 [nM]
[2H]C([2H])(Nc1nncc2c1sc1nnc(C)c(C)c12)c1ccc(C(C)(C)O)cc1 [Compound 13, 2-(4-(((3,4-dimethylthieno[2,3-c:4,5-d′]dipyridazin-8-yl)amino)methyl-d2)phenyl)propan-2-ol]	91.9	727
Cc1nc2sc3c(NCc4ccc(OC(F)F)cc4)nncc3c2c(C)c1Cl [Compound 4, 3-chloro-N-(4-(difluoromethoxy)benzyl)-2,4-dimethylpyrido[3′,2′:4,5]thieno[2,3-d]pyridazin-8-amine]	41	540
Cc1nnc2sc3c(N4CCCC4)nncc3c2c1C [Compound 15, 3,4-dimethyl-8-(pyrrolidin-1-yl)thieno[2,3-c:4,5-d′]dipyridazine]	95.8	–
Cc1nnc2sc3c(NCc4ccc(C(C)(C)O)cc4)nncc3c2c1C [Compound 12, 2-(4-(((3,4-dimethylthieno[2,3-c:4,5-d′]dipyridazin-8-yl)amino)methyl)phenyl)propan-2-ol]	99.4	–
[2H]C([2H])([2H])C(O)(c1ccc(CNc2nncc3c2sc2nnc(C)c(C)c23)cc1)C([2H])([2H])[2H] [Compound 14, 2-(4-(((3,4-dimethylthieno[2,3-c:4,5-d′]dipyridazin-8-yl)amino)methyl)phenyl)propan-1,1,1,3,3,3-d6-2-ol]	89.4	746
Cc1nnc2sc3c(NCc4ccc(-n5cccn5)cc4)nncc3c2c1C [Compound 18, N-(4-(1H-pyrazol-1-yl)benzyl)-3,4-dimethylthieno[2,3-c:4,5-d′]dipyridazin-8-amine]	72.7	560
COCCCNc1nncc2c1sc1nc(C)c(Cl)c(C)c12 [Compound 7, 3-chloro-N-(3-methoxypropyl)-2,4-dimethylpyrido[3′,2′:4,5]thieno[2,3-d]pyridazin-8-amine hydrochloride]	70	340
Cc1nc2sc3c(NC4CC4)nncc3c2c(C)c1Cl [Compound 11, 3-chloro-N-cyclopropyl-2,4-dimethylpyrido[3′,2′:4,5]thieno[2,3-d]pyridazin-8-amine hydrochloride]	100	81
Cc1nc2sc3c(N4CC5CC5C4)nncc3c2c(C)c1Cl (stereo not drawn) [Compound 3, 8-(3-azabicyclo[3.1.0]hexan-3-yl)-3-chloro-2,4-dimethylpyrido[3′,2′:4,5]thieno[2,3-d]pyridazine]	80.4	480
